Where two headings read alike, the source gives them in different places.
How the values were obtained:
HMLER CD24+ cells = test: Cell viability assay (CellTiter-Blue), IC50 assessment; type: cell-based; settings: Homo sapiens, read-out: IC50 CD24+
Procedure: (§1) FIG. 1 represents viability of HMLER CD24− cells (full line) and HMLER CD24+ cells (dotted line) at different concentration of salinomycine (1A), AM5 […] or AM13 (1D).
(§2) Cell viability assay was carried out by plating 1000 cells per well in 96-well plates. NAC (2 mM, A9165 Sigma) or DFO (1 mM) were pretreated 2 hours prior to the compound treatment. CellTiter-Blue® Reagent (Promega; G3582) (20 μl/well) was added after 24, 48, or 72 hours treatment and cells were incubated for 1 hour before recording fluorescence (560(20)Ex/590(10)Em) using a Perkin Elmer Wallac 1420 Victor2 Microplate Reader.

HMLER CD24− cells [1] = test: as above; type: cell-based, Human; settings: for IC50: Homo sapiens, read-out: IC50 CD24−; for activity against CD24 cells compared with salinomycine: comparison of the IC50 results
Procedure: as §1, §2

HMLER CD24− cells [2] = test: Cell proliferation and formation of mammospheres; type: cell-based, Human
Description: FIG. 2 is a representative phase contrast photomicrographs of mammospheres formed after 11 days in the absence of any added compound (Control) or in the presence of a defined amount of salinomycine, AM5, AM9 or AM13. […] The size of the mammospheres is correlated with progenitor cell proliferation, whereas the number of mammospheres formed after serial passages at clonal density is correlated with the self-renewal capacity of primitive Cancer Stem Cells. […]
FIG. 9 represents images of the third generation of mammospheres formed from individual HMLER CD24low cells treated during 7 days with the indicated drug. The size of the mammospheres is correlated with progenitor cell proliferation capacity, whereas the number of mammospheres formed after serial passages at clonal density is correlated with the self-renewal capacity of primitive Cancer Stem Cells.
AM5, AM9, AM13 and salinomycine were assessed for their capability to inhibit cell proliferation and formation of mammospheres. […]
AM5 and AM23 and salinomycine were assessed for their capability to inhibit cell proliferation and formation of mammospheres.

[3] = HMLER CD24+ cells, cell viability
[4] = HMLER CD24− cells, cell viability

SMILES	IC50 (HMLER CD24+ cells; [3]) [nM]	IC50 (HMLER CD24− cells [1]; [4]) [nM]	activity against CD24 cells compared with salinomycine (HMLER CD24− cells [1])	also measured
CCC(C(=O)O)[C@H]1CC[C@H](C)C([C@@H](C)[C@H](O)[C@H](C)C(=O)[C@H](CC)[C@H]2O[C@]3(C=CC(=O)[C@]4(CC[C@@](C)([C@H]5CC[C@](O)(CC)[C@H](C)O5)O4)O3)[C@H](C)C[C@@H]2C)O1 (stereo partly drawn) [AM6]				IC50 (HMLER CD24+ cells): 12800 nM; IC50 (HMLER CD24− cells [1]): 6180 nM
CCC(C(=O)OC)[C@H]1CC[C@H](C)C([C@@H](C)[C@H](O)[C@H](C)C(=O)[C@H](CC)[C@H]2O[C@]3(C=C[C@@H](OC(C)=O)[C@]4(CC[C@@](C)([C@H]5CC[C@](O)(CC)[C@H](C)O5)O4)O3)[C@H](C)C[C@@H]2C)O1 (stereo partly drawn) [AM7]	12500	7250		
CCC(C(=O)O)[C@H]1CC[C@H](C)C([C@@H](C)[C@H](O)[C@H](C)C(=O)[C@H](CC)[C@H]2O[C@]3(C=C[C@@H](NOCc4ccccc4)[C@]4(CC[C@@](C)([C@H]5CC[C@](O)(CC)[C@H](C)O5)O4)O3)[C@H](C)C[C@@H]2C)O1 (stereo partly drawn) [AM8]	8060	1020	significantly improved activity	
C#CCN[C@@H]1C=C[C@]2(O[C@H]([C@@H](CC)C(=O)[C@@H](C)[C@@H](O)[C@H](C)C3O[C@@H](C(CC)C(=O)OC)CC[C@@H]3C)[C@@H](C)C[C@H]2C)O[C@@]12CC[C@@](C)([C@H]1CC[C@](O)(CC)[C@H](C)O1)O2 (stereo partly drawn) [AM9, Me-Sal-propargylamine]	22000	11800	lower efficiency than salinomycine	effect against tumorsphere formation / CSC maintenance (HMLER CD24− cells [2]): ineffective; inhibition of cell proliferation (HMLER CD24− cells [2]; at 500 nM): did not inhibit cell proliferation
C#CCN[C@@H]1C=C[C@]2(O[C@H]([C@@H](CC)C(=O)[C@@H](C)[C@@H](O)[C@H](C)C3O[C@@H](C(CC)C(=O)OCC#C)CC[C@@H]3C)[C@@H](C)C[C@H]2C)O[C@@]12CC[C@@](C)([C@H]1CC[C@](O)(CC)[C@H](C)O1)O2 (stereo partly drawn) [AM10]	19700	10000	lower efficiency than salinomycine	
CCC(C(=O)O)[C@H]1CC[C@H](C)C([C@@H](C)[C@H](O)[C@H](C)C(=O)[C@H](CC)[C@H]2O[C@]3(C=C[C@@H](NCc4ccccc4)[C@]4(CC[C@@](C)([C@H]5CC[C@](O)(CC)[C@H](C)O5)O4)O3)[C@H](C)C[C@@H]2C)O1 (stereo partly drawn) [AM11]	6700	800	significantly improved activity	
CCCCCCN[C@@H]1C=C[C@]2(O[C@H]([C@@H](CC)C(=O)[C@@H](C)[C@@H](O)[C@H](C)C3O[C@@H](C(CC)C(=O)O)CC[C@@H]3C)[C@@H](C)C[C@H]2C)O[C@@]12CC[C@@](C)([C@H]1CC[C@](O)(CC)[C@H](C)O1)O2 (stereo partly drawn) [AM12]	6920	1790	significantly improved activity	
CCCCCCCCCCCCN[C@@H]1C=C[C@]2(O[C@H]([C@@H](CC)C(=O)[C@@H](C)[C@@H](O)[C@H](C)C3O[C@@H](C(CC)C(=O)O)CC[C@@H]3C)[C@@H](C)C[C@H]2C)O[C@@]12CC[C@@](C)([C@H]1CC[C@](O)(CC)[C@H](C)O1)O2 (stereo partly drawn) [AM13, Sal-Dodecylamine]	3190	72.7	significantly improved activity	inhibition of cell proliferation, efficacy in comparison with salinomycine (HMLER CD24− cells [2]; at 30 nM): ten-fold improved efficacy; number and size of mammosphere (HMLER CD24− cells [2]; mammospheres after 11 days, low nanomolar concentrations): reduced the number and the size of mammosphere
C#CCCCN[C@@H]1C=C[C@]2(O[C@H]([C@@H](CC)C(=O)[C@@H](C)[C@@H](O)[C@H](C)C3O[C@@H](C(CC)C(=O)O)CC[C@@H]3C)[C@@H](C)C[C@H]2C)O[C@@]12CC[C@@](C)([C@H]1CC[C@](O)(CC)[C@H](C)O1)O2 (stereo partly drawn) [AM16]	1170	300		
C#CCN[C@H]1C=C[C@]2(O[C@H]([C@@H](CC)C(=O)[C@@H](C)[C@@H](O)[C@H](C)C3O[C@@H](C(CC)C(=O)O)CC[C@@H]3C)[C@@H](C)C[C@H]2C)O[C@@]12CC[C@@](C)([C@H]1CC[C@](O)(CC)[C@H](C)O1)O2 (stereo partly drawn) [AM17]	2000	100		
CCC(C(=O)NO)[C@H]1CC[C@H](C)C([C@@H](C)[C@H](O)[C@H](C)C(=O)[C@H](CC)[C@H]2O[C@]3(C=C/C(=N\O)[C@]4(CC[C@@](C)([C@H]5CC[C@](O)(CC)[C@H](C)O5)O4)O3)[C@H](C)C[C@@H]2C)O1 (stereo partly drawn) [AM18]	2500	100		
CCCN[C@@H]1C=C[C@]2(O[C@H]([C@@H](CC)C(=O)[C@@H](C)[C@@H](O)[C@H](C)C3O[C@@H](C(CC)C(=O)O)CC[C@@H]3C)[C@@H](C)C[C@H]2C)O[C@@]12CC[C@@](C)([C@H]1CC[C@](O)(CC)[C@H](C)O1)O2 (stereo partly drawn) [AM21]	6500	340		
C=CCN[C@@H]1C=C[C@]2(O[C@H]([C@@H](CC)C(=O)[C@@H](C)[C@@H](O)[C@H](C)C3O[C@@H](C(CC)C(=O)O)CC[C@@H]3C)[C@@H](C)C[C@H]2C)O[C@@]12CC[C@@](C)([C@H]1CC[C@](O)(CC)[C@H](C)O1)O2 (stereo partly drawn) [AM22]	1530	300		
CCC(C(=O)O)[C@H]1CC[C@H](C)C([C@@H](C)[C@H](O)[C@H](C)C(=O)[C@H](CC)[C@H]2O[C@]3(C=C[C@@H](NC4CCC4)[C@]4(CC[C@@](C)([C@H]5CC[C@](O)(CC)[C@H](C)O5)O4)O3)[C@H](C)C[C@@H]2C)O1 (stereo partly drawn) [AM24]	1400	107		
CCC(C(=O)O)[C@H]1CC[C@H](C)C([C@@H](C)[C@H](O)[C@H](C)C(=O)[C@H](CC)[C@H]2O[C@]3(C=C[C@@H](NC4CCCC4)[C@]4(CC[C@@](C)([C@H]5CC[C@](O)(CC)[C@H](C)O5)O4)O3)[C@H](C)C[C@@H]2C)O1 (stereo partly drawn) [AM25]	1360	108		
CCC(C(=O)O)[C@H]1CC[C@H](C)C([C@@H](C)[C@H](O)[C@H](C)C(=O)[C@H](CC)[C@H]2O[C@]3(CC[C@@H](NCC(C)C)[C@]4(CC[C@@](C)([C@H]5CC[C@](O)(CC)[C@H](C)O5)O4)O3)[C@H](C)C[C@@H]2C)O1 (stereo partly drawn) [AM26]	10100	1150		
CCC(C(=O)NO)[C@H]1CC[C@H](C)C([C@@H](C)[C@H](O)[C@H](C)C(=O)[C@H](CC)[C@H]2O[C@]3(C=C[C@@H](NC4CC4)[C@]4(CC[C@@](C)([C@H]5CC[C@](O)(CC)[C@H](C)O5)O4)O3)[C@H](C)C[C@@H]2C)O1 (stereo partly drawn) [AM28]	5830	6430		
CC(=O)O[C@H]1C(=O)[C@@]2(C)[C@H]([C@H](OC(=O)c3ccccc3)[C@]3(O)C[C@H](OC(=O)[C@H](O)[C@@H](NC(=O)c4ccccc4)c4ccccc4)C(C)=C1C3(C)C)[C@]1(OC(C)=O)CO[C@@H]1C[C@@H]2O [paclitaxel, reference compound]				effect against tumorsphere formation / CSC maintenance (HMLER CD24− cells [2]): poorly effective
